Test results: publication PMC6364417, “Kinase inhibitor library screening identifies synergistic drug combinations effective in sensitive and resistant melanoma cells” (Journal of Experimental & Clinical Cancer Research : CR, 2019)

Assays:
Test in all cases: Kinase inhibitor library screening, PrestoBlue cell viability, 1 or 10 μM, 72 h
[1] = tested on: IGR37-XP cells (Vemurafenib-resistant); conditions: IGR37 XP
[2] = tested on: 501Mel-XP cells (Vemurafenib-resistant); conditions: 501Mel XP
[3] = tested on: 501Mel cells (parental); conditions: 501Mel Parental
Outline: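 Normalised to untreated controls, viability percentages came from PrestoBlue measured on a microplate reader following 72 h incubation with drug. Each line was assayed at least twice.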

[4] = tested on: IGR37-GP cells (Dabrafenib-resistant); conditions: IGR37 GP
[5] = tested on: 501Mel-GP cells (Dabrafenib-resistant); conditions: 501Mel GP
[6] = tested on: A375 cells (parental); conditions: A375 Parental
[7] = tested on: IGR37 cells (parental); conditions: IGR37 Parental
[8] = tested on: A375-XP cells (Vemurafenib-resistant); conditions: A375 XP
[9] = tested on: A375-GP cells (Dabrafenib-resistant); conditions: A375 GP

| SMILES | cell viability (kinase inhibitor library screening) ([1]; 10μΜ, in %) | cell viability (kinase inhibitor library screening) ([2]; 1μΜ, in %) | cell viability (kinase inhibitor library screening) ([2]; 10μΜ, in %) | cell viability (kinase inhibitor library screening) ([3]; 1μΜ, in %) | cell viability (kinase inhibitor library screening) ([3]; 10μΜ, in %) | cell viability (kinase inhibitor library screening) ([4]; 1μΜ, in %) | cell viability (kinase inhibitor library screening) ([4]; 10μΜ, in %) | cell viability (kinase inhibitor library screening) ([5]; 1μΜ, in %) | cell viability (kinase inhibitor library screening) ([5]; 10μΜ, in %) | cell viability (kinase inhibitor library screening) ([6]; 1μΜ, in %) | cell viability (kinase inhibitor library screening) ([6]; 10μΜ, in %) | cell viability (kinase inhibitor library screening) ([7]; 1μΜ, in %) | cell viability (kinase inhibitor library screening) ([7]; 10μΜ, in %) | cell viability (kinase inhibitor library screening) ([8]; 1μΜ, in %) | cell viability (kinase inhibitor library screening) ([8]; 10μΜ, in %) | cell viability (kinase inhibitor library screening) ([9]; 1μΜ, in %) | cell viability (kinase inhibitor library screening) ([9]; 10μΜ, in %) | cell viability (kinase inhibitor library screening) ([1]; 1μΜ, 72 h) | cell viability (kinase inhibitor library screening) ([1]; 10μΜ, 72 h) | cell viability (kinase inhibitor library screening) ([2]; 1μΜ, 72 h) | other results |
| --- | --- | --- | --- | --- | --- | --- | --- | --- | --- | --- | --- | --- | --- | --- | --- | --- | --- | --- | --- | --- | --- |
| CC1(C)CNc2cc(NC(=O)c3cccnc3NCc3ccncc3)ccc21 [Motesanib Diphosphate] | 78.2 | 91.0 | 71.5 | 97.3 | 94.6 | 85.5 | 85.5 | 98.5 | 82.7 | 105.3 | 89.5 | 97.7 | 97.0 | 109.8 | 97.0 | 99.4 | 89.9 | – | – | – | – |
| CNC(=O)c1cc(Oc2ccc(NC(=O)Nc3cc(C(C)(C)C)nn3-c3ccc4ncccc4c3)c(F)c2)ccn1 [DCC-2036 (Rebastinib)] | – | – | – | – | – | – | – | – | – | – | – | – | – | – | – | – | – | 107.3% | 2.4% | 102.9% | cell viability (kinase inhibitor library screening) ([2]; 10μΜ, 72 h): 0.261%; cell viability (kinase inhibitor library screening) ([3]; 1μΜ, 72 h): 81.5%; cell viability (kinase inhibitor library screening) ([3]; 10μΜ, 72 h): 2.8%; cell viability (kinase inhibitor library screening) ([4]; 10μΜ, 72 h): 8.3%; cell viability (kinase inhibitor library screening) ([5]; 1μΜ, 72 h): 100.3%; cell viability (kinase inhibitor library screening) ([5]; 10μΜ, 72 h): 2.0%; cell viability (kinase inhibitor library screening) ([6]; 10μΜ, 72 h): 1.8%; cell viability (kinase inhibitor library screening) ([6]; 1μΜ, 72 h): 55.4%; cell viability (kinase inhibitor library screening) ([7]; 1μΜ, 72 h): 67.0%; cell viability (kinase inhibitor library screening) ([7]; 10μΜ, 72 h): 20.7%; cell viability (kinase inhibitor library screening) ([8]; 1μΜ, 72 h): 76.3%; cell viability (kinase inhibitor library screening) ([8]; 10μΜ, 72 h): 2.5%; cell viability (kinase inhibitor library screening) ([9]; 1μΜ, 72 h): 96.7%; cell viability (kinase inhibitor library screening) ([9]; 10μΜ, 72 h): 3.6% |
| COc1cc(Nc2ncc(F)c(Nc3ccc4c(n3)N(COP(=O)(O)O)C(=O)C(C)(C)O4)n2)cc(OC)c1OC [R788 (Fostamatinib)] | 12.1 | 82.4 | 25.1 | 98.5 | 76.6 | 87.5 | 21.3 | 90.2 | 61.2 | 95.5 | 47.5 | 99.8 | 77.8 | 93.7 | 63.9 | 89.5 | 49.0 | – | – | – | cell viability (kinase inhibitor library screening) ([1]; 1μΜ, in %): 89.9 |
| Cc1cn(-c2cc(NC(=O)c3ccc(C)c(Nc4nccc(-c5cccnc5)n4)c3)cc(C(F)(F)F)c2)cn1 [Nilotinib (AMN-107)] | – | – | – | – | – | – | – | – | – | – | – | – | – | – | – | – | – | 100.2% | 1.4% | 84.0% | cell viability (kinase inhibitor library screening) ([2]; 10μΜ, 72 h): 54.3%; cell viability (kinase inhibitor library screening) ([3]; 1μΜ, 72 h): 89.8%; cell viability (kinase inhibitor library screening) ([3]; 10μΜ, 72 h): 71.1%; cell viability (kinase inhibitor library screening) ([4]; 1μΜ, 72 h): 98.8%; cell viability (kinase inhibitor library screening) ([4]; 10μΜ, 72 h): 35.4%; cell viability (kinase inhibitor library screening) ([5]; 1μΜ, 72 h): 99.9%; cell viability (kinase inhibitor library screening) ([5]; 10μΜ, 72 h): 74.5%; cell viability (kinase inhibitor library screening) ([6]; 10μΜ, 72 h): 66.2%; cell viability (kinase inhibitor library screening) ([6]; 1μΜ, 72 h): 102.9%; cell viability (kinase inhibitor library screening) ([7]; 1μΜ, 72 h): 95.3%; cell viability (kinase inhibitor library screening) ([7]; 10μΜ, 72 h): 73.7%; cell viability (kinase inhibitor library screening) ([8]; 1μΜ, 72 h): 87.0%; cell viability (kinase inhibitor library screening) ([8]; 10μΜ, 72 h): 57.9%; cell viability (kinase inhibitor library screening) ([9]; 1μΜ, 72 h): 96.3%; cell viability (kinase inhibitor library screening) ([9]; 10μΜ, 72 h): 48.3% |
